ChEMBL document CHEMBL5649169 (ChemMedChem, 2018)

Legend:
[1] = biological target: Small ribosomal subunit protein uS9 (Homo sapiens) (UniProt P62249)
[2] = biological target: Protein disulfide-isomerase A3 (Homo sapiens) (UniProt P30101)
[3] = biological target: Serine/threonine-protein kinase A-Raf (Homo sapiens) (UniProt P10398)
[4] = biological target: Dynamin-2 (Homo sapiens) (UniProt P50570)
[5] = biological target: H/ACA ribonucleoprotein complex subunit DKC1 (Homo sapiens) (UniProt O60832)
[6] = biological target: Lamina-associated polypeptide 2, isoform alpha (Homo sapiens) (UniProt P42166)
[7] = biological target: Small nuclear ribonucleoprotein Sm D2 (Homo sapiens) (UniProt P62316)
[8] = biological target: Stathmin-2 (Homo sapiens) (UniProt Q93045)
[9] = biological target: Proliferation-associated protein 2G4 (Homo sapiens) (UniProt Q9UQ80)
Sequence of Proliferation-associated protein 2G4 (Homo sapiens) (Q9UQ80 whole entry): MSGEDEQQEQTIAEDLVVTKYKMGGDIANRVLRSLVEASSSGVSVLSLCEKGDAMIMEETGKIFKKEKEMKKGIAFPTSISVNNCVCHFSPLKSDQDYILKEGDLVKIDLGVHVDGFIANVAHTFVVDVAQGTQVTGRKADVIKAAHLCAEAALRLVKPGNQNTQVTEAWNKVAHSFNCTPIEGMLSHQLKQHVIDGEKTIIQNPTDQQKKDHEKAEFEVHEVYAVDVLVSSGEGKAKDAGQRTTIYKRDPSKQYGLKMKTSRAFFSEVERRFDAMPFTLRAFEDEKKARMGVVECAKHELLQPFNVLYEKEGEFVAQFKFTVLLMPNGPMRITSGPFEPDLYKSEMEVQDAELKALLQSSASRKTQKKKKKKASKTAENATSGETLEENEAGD

[10] = biological target: Hsp90 co-chaperone Cdc37 (Homo sapiens) (UniProt Q16543)
[11] = biological target: Moesin (Homo sapiens) (UniProt P26038)
Sequence of Moesin (Homo sapiens) (P26038 whole entry): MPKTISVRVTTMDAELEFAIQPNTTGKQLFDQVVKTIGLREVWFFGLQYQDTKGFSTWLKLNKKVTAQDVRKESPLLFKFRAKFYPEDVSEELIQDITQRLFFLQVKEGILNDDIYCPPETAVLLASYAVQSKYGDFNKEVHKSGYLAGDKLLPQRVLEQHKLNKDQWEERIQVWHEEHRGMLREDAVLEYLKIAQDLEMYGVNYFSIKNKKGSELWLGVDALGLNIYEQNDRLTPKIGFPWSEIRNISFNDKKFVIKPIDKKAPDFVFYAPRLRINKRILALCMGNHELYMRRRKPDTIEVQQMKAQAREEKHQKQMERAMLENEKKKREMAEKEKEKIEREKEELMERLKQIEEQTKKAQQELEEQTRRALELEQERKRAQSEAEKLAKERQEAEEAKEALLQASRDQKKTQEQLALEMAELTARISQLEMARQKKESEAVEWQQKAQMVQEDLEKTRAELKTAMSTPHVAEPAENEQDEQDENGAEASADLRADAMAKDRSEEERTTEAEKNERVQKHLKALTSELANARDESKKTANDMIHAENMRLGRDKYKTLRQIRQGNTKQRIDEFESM

[12] = biological target: Extended synaptotagmin-2 (Homo sapiens) (UniProt A0FGR8)
[13] = biological target: Serine/threonine-protein kinase PLK1 (Homo sapiens) (UniProt P53350)
[14] = biological target: Exocyst complex component 1 (Homo sapiens) (UniProt Q9NV70)
[15] = biological target: Serine/arginine-rich splicing factor 7 (Homo sapiens) (UniProt Q16629)
[16] = biological target: Protein RER1 (Homo sapiens) (UniProt O15258)
[17] = biological target: Mitogen-activated protein kinase 8 (Homo sapiens) (UniProt P45983)
[18] = biological target: MAP/microtubule affinity-regulating kinase 3 (Homo sapiens) (UniProt P27448)
[19] = biological target: Large ribosomal subunit protein bL12m (Homo sapiens) (UniProt P52815)
[20] = biological target: Alanine--tRNA ligase, cytoplasmic (Homo sapiens) (UniProt P49588)
[21] = biological target: Tropomyosin alpha-3 chain (Homo sapiens) (UniProt P06753)
[22] = biological target: GPI-anchor transamidase component GPAA1 (Homo sapiens) (UniProt O43292)
[23] = biological target: Acylamino-acid-releasing enzyme (Homo sapiens) (UniProt P13798)
Sequence of Acylamino-acid-releasing enzyme (Homo sapiens) (P13798 whole entry): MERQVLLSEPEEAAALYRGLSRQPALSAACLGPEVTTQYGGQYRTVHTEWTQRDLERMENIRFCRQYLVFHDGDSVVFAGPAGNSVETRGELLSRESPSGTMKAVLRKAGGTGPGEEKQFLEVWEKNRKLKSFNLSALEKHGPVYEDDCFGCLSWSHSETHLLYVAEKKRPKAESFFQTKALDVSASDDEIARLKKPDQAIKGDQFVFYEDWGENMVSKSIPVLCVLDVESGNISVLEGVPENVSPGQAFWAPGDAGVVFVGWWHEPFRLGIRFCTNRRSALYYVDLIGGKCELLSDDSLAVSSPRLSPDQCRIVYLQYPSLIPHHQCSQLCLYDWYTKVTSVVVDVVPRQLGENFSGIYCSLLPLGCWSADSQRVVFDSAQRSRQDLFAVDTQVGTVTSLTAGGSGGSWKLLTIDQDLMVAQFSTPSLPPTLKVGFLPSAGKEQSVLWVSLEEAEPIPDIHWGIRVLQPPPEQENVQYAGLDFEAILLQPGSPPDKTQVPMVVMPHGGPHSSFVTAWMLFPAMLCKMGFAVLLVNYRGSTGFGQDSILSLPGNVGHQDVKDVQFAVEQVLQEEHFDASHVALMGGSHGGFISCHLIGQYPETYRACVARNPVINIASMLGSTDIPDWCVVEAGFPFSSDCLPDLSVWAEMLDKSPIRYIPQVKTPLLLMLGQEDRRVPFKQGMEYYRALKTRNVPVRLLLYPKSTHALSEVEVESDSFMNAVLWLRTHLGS

[24] = biological target: Sterol O-acyltransferase 1 (Homo sapiens) (UniProt P35610)
[25] = biological target: Ephrin type-B receptor 2 (Homo sapiens) (UniProt P29323)
[26] = biological target: Transformer-2 protein homolog beta (Homo sapiens) (UniProt P62995)
[27] = biological target: Deoxynucleoside triphosphate triphosphohydrolase SAMHD1 (Homo sapiens) (UniProt Q9Y3Z3)
Sequence of Deoxynucleoside triphosphate triphosphohydrolase SAMHD1 (Homo sapiens) (Q9Y3Z3 whole entry): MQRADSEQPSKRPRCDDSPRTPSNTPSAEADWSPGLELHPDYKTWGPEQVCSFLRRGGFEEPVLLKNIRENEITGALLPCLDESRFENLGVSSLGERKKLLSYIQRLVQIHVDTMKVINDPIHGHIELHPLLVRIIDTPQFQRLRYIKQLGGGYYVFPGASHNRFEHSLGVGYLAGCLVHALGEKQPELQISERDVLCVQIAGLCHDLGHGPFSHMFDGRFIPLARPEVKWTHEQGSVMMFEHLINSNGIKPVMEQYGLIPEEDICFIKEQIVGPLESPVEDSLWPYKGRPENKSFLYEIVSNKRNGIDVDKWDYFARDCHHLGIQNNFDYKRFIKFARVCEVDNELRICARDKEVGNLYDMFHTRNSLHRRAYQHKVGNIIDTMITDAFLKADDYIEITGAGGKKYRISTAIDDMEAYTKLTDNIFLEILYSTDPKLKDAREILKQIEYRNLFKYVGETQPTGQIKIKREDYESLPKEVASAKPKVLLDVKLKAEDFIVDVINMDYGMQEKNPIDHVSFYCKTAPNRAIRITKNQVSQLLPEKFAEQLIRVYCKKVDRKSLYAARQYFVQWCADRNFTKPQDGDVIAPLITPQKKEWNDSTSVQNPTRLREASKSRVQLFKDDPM

[28] = biological target: Cytoplasmic dynein 1 heavy chain 1 (Homo sapiens) (UniProt Q14204)
[29] = biological target: Calcium/calmodulin-dependent protein kinase type II subunit gamma (Homo sapiens) (UniProt Q13555)
[30] = biological target: Transcription elongation regulator 1 (Homo sapiens) (UniProt O14776)
[31] = biological target: Peptidyl-prolyl cis-trans isomerase A (Homo sapiens) (UniProt P62937)
Sequence of Peptidyl-prolyl cis-trans isomerase A (Homo sapiens) (P62937 whole entry, looked up): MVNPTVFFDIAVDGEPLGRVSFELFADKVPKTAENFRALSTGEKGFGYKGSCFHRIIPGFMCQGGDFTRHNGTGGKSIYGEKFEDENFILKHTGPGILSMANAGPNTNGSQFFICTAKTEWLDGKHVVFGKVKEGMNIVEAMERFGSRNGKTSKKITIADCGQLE

[32] = biological target: Succinate--CoA ligase [ADP-forming] subunit beta, mitochondrial (Homo sapiens) (UniProt Q9P2R7)
[33] = biological target: Myosin light chain kinase, smooth muscle (Homo sapiens) (UniProt Q15746)
[34] = biological target: Protein salvador homolog 1 (Homo sapiens) (UniProt Q9H4B6)
[35] = biological target: Large ribosomal subunit protein P1 (Homo sapiens) (UniProt P05386)
Sequence of Large ribosomal subunit protein P1 (Homo sapiens) (P05386 whole entry): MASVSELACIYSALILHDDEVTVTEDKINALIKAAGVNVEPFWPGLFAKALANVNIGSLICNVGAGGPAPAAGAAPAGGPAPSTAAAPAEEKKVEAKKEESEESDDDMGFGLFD

[36] = biological target: 26S proteasome regulatory subunit 4 (Homo sapiens) (UniProt P62191)
Sequence of 26S proteasome regulatory subunit 4 (Homo sapiens) (P62191 whole entry): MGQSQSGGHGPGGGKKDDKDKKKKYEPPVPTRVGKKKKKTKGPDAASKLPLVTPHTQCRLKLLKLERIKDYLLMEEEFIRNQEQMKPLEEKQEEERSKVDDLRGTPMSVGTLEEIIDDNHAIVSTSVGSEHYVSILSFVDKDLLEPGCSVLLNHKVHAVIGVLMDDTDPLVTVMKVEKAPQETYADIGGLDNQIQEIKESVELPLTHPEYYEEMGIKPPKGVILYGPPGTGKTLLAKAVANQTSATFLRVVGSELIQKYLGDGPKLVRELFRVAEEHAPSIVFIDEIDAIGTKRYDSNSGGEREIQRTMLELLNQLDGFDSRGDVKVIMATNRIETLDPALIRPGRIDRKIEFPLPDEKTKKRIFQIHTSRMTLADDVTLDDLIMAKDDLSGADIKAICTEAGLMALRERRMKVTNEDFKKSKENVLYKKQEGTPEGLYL

[37] = biological target: Septin-9 (Homo sapiens) (UniProt Q9UHD8)
[38] = biological target: Serine/threonine-protein kinase PAK 4 (Homo sapiens) (UniProt O96013)
[39] = biological target: Eukaryotic translation initiation factor 4 gamma 1 (Homo sapiens) (UniProt Q04637)
[40] = biological target: Clathrin light chain A (Homo sapiens) (UniProt P09496)
Sequence of Clathrin light chain A (Homo sapiens) (P09496 whole entry): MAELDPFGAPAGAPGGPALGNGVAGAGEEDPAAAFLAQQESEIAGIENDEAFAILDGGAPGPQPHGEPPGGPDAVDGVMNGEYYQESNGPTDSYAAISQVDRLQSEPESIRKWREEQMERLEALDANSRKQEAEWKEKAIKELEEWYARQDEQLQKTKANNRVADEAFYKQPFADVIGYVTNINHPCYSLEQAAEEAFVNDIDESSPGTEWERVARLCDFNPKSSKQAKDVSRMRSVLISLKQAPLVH

[41] = biological target: Apoptosis-inducing factor 1, mitochondrial (Homo sapiens) (UniProt O95831)
[42] = biological target: Endoplasmic reticulum aminopeptidase 1 (Homo sapiens) (UniProt Q9NZ08)
[43] = biological target: Tyrosine-protein kinase JAK1 (Homo sapiens) (UniProt P23458)
Sequence of Tyrosine-protein kinase JAK1 (Homo sapiens) (P23458 whole entry): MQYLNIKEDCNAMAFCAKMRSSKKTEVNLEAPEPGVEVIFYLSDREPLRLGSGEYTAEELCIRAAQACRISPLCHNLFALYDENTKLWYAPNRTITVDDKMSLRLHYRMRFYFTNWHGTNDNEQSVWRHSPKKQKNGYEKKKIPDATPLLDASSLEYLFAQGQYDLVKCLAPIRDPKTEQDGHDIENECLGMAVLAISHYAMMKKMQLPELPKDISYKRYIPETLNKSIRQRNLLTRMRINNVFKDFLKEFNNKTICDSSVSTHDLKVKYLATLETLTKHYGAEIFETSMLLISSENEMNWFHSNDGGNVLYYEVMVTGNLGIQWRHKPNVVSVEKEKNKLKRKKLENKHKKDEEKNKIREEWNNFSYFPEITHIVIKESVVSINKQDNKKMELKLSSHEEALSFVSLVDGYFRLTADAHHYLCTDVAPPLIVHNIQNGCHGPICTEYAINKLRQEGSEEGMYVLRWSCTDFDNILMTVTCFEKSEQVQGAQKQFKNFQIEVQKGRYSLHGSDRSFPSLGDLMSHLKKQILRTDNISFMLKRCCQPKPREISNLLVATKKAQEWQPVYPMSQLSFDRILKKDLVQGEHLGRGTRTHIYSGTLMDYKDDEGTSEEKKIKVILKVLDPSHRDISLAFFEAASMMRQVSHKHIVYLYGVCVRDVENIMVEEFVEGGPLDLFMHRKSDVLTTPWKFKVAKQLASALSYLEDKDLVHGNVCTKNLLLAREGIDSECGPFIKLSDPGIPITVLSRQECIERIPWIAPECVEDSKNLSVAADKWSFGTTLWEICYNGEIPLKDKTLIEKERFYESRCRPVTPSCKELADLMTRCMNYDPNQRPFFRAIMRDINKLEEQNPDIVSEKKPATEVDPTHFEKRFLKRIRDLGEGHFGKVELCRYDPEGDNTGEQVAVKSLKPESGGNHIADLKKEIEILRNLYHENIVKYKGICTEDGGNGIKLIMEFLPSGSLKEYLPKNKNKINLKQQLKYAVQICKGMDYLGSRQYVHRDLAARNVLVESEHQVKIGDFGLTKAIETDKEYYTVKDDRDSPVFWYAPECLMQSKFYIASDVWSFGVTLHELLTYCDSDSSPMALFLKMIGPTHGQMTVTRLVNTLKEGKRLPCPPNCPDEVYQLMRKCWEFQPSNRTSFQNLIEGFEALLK

[44] = biological target: Ephrin type-A receptor 7 (Homo sapiens, UniProt Q15375)
[45] = biological target: G2/mitotic-specific cyclin-B2 (Homo sapiens) (UniProt O95067)
[46] = biological target: DNA replication licensing factor MCM5 (Homo sapiens) (UniProt P33992)
Also: assay method not described here.

Sequence of Protein disulfide-isomerase A3 (Homo sapiens) (P30101 whole entry): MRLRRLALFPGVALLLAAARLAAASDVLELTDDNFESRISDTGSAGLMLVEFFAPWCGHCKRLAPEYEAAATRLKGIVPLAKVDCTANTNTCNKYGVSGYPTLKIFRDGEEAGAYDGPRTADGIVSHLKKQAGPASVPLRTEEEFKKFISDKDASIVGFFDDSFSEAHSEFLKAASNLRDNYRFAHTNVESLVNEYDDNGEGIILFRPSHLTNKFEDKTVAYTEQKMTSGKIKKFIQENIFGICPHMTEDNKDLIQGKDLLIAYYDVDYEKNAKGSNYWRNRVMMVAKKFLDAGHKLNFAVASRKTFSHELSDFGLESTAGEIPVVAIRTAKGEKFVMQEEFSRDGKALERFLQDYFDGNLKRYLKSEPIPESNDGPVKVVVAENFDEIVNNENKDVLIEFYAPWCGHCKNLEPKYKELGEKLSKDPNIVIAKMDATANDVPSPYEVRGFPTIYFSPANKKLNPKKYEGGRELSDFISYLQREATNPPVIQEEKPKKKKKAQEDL

Cc1ccc(C(=O)Nc2cccc(C(F)(F)F)c2)cc1Nc1nc(-c2cccnc2)nc2nn(C)cc12
ED50 [1]: 0.345 µM | ED50 [2]: 0.103 µM | ED50 [3]: 2.15 µM | ED50 [4]: 0.471 µM | ED50 [5]: 5.99 µM | ED50 [6]: 6.61 µM | ED50 [7]: 9770 µM | ED50 [8]: 10.5 µM | ED50 [9]: 0.365 µM | ED50 [10]: 0.00871 µM | ED50 [11]: 0.256 µM | ED50 [12]: 0.0286 µM | ED50 [13]: 98.4 µM | ED50 [14]: 0.0794 µM | ED50 [15]: 0.258 µM | ED50 [16]: 3.97 µM | ED50 [17]: 0.0452 µM | ED50 [18]: 0.409 µM | ED50 [19]: 0.117 µM | ED50 [20]: 36.5 µM | ED50 [21]: 18.9 µM | ED50 [22]: 0.841 µM | ED50 [23]: 3.75 µM | ED50 [24]: 7.06 µM | ED50 [25]: 6.16 µM | ED50 [26]: 0.537 µM | ED50 [27]: 12.8 µM | ED50 [28]: 51200 µM | ED50 [29]: 0.0517 µM | ED50 [30]: 0.0876 µM | ED50 [31]: 2.04 µM | ED50 [32]: 2.39 µM | ED50 [33]: 0.00038 µM | ED50 [34]: 0.356 µM | ED50 [35]: 16600 µM | ED50 [36]: 0.00477 µM | ED50 [37]: 0.109 µM | ED50 [38]: 25.1 µM | ED50 [39]: 0.0778 µM | ED50 [40]: 0.0659 µM | ED50 [41]: 0.182 µM | ED50 [42]: 8.49 µM | ED50 [43]: 0.0748 µM | ED50 [44]: 1.49 µM | ED50 [45]: 13.5 µM | ED50 [46]: 1560 µM

Cc1ccc(C(=O)Nc2cccc(C(F)(F)F)c2)cc1Nc1nc(-c2cccnc2)nc2c1cnn2C
ED50 [1]: 0.0497 µM | ED50 [2]: 3.03 µM | ED50 [3]: 13.1 µM | ED50 [4]: 21.9 µM | ED50 [5]: 3.14 µM | ED50 [6]: 3.35 µM | ED50 [7]: 42.7 µM | ED50 [8]: 0.00439 µM | ED50 [9]: 162 µM | ED50 [10]: 3.55 µM | ED50 [11]: 10.7 µM | ED50 [12]: 0.041 µM | ED50 [13]: 1.22 µM | ED50 [14]: 0.0112 µM | ED50 [15]: 0.00758 µM | ED50 [16]: 78.2 µM | ED50 [17]: 3.44 µM | ED50 [18]: 19.1 µM | ED50 [19]: 7.74 µM | ED50 [20]: 0.00373 µM | ED50 [21]: 5.57 µM | ED50 [22]: 56.5 µM | ED50 [23]: 0.0282 µM | ED50 [24]: 224 µM | ED50 [25]: 2.94 µM | ED50 [26]: 0.0121 µM | ED50 [27]: 0.00363 µM | ED50 [28]: 1.3 µM | ED50 [29]: 0.177 µM | ED50 [30]: 732 µM | ED50 [31]: 0.396 µM | ED50 [32]: 5.03 µM | ED50 [33]: 0.247 µM | ED50 [34]: 13.4 µM | ED50 [35]: 0.0125 µM | ED50 [36]: 91.8 µM | ED50 [37]: 8.65 µM | ED50 [38]: 9.68 µM | ED50 [39]: 0.0238 µM | ED50 [40]: 0.55 µM | ED50 [41]: 0.00539 µM | ED50 [42]: 6.22 µM | ED50 [43]: 0.0138 µM | ED50 [44]: 15.8 µM | ED50 [45]: 3.13 µM | ED50 [46]: 6.51 µM
